# Literature values, collected in patent US20050244357A1, “Oil-containing emulsifiable formulations containing active agents” (priority 2004, published 2005).
# Test system: thrips
# Settings: cotton, applied alone
smiles,measurement,value
CNC(=O)CSP(=S)(OC)OC [Dimethoate],control of thrips,good control
